In US6229016A, “Method for treating tumors using 2-aryl-naphthyridin-4-ones” (priority 2000, dated 2001):
Where two headings read alike, the source gives them in different places.

What was measured:
[1] = system: NCI's 60 human tumor cell line; assay: NCI 60 human tumor cell line in vitro screen (average / whole panel); assay type: cell-based; details: calculated from all cell lines tested, molar concentrations, read-out: average log GI50 (converted)
[2] = system: HL-60(TB) leukemia cell line; assay: cells; assay type: cell-based; details: Homo sapiens; HL-60(TB); read-out: Cytotoxicity log GI50 (converted)
[3] = system: NCI-H460 non-small cell lung cancer cell line; assay: NCI in vitro screen, non-small cell lung cancer NCI-H460; assay type: cell-based; details: Homo sapiens, read-out: Cytotoxicity log GI50 (converted)
[4] = system: HCT-116 colon cancer cell line; assay: NCI in vitro screen, colon cancer HCT-116; assay type: cell-based; details: Homo sapiens; HCT-1.16 (head); HCT-116 (footnote); read-out: Cytotoxicity log GI50 (converted)
[5] = system: SF-295 CNS cancer cell line; assay: NCI in vitro screen, CNS cancer SF-295; assay type: cell-based; details: Homo sapiens, read-out: Cytotoxicity log GI50 (converted)
[6] = system: U-251 CNS cancer cell line; assay: NCI in vitro screen, CNS cancer U-251; assay type: cell-based; details: Homo sapiens, read-out: Cytotoxicity log GI50 (converted)
[7] = system: SK-MEL-5 melanoma cell line; assay: NCI in vitro screen, melanoma SK-MEL-5; assay type: cell-based; details: Homo sapiens, read-out: Cytotoxicity log GI50 (converted)
Source text: (§1) Compounds 41-51 and 53-68 were submitted to NCI and assayed in the NCI's in vitro disease-oriented antitumor screen, which involves determination of a test compound's effects on the growth of approximately 60 human tumor cell lines. See, M. R. Boyd, et al. In Cancer: Principles and Practice of Oncology Updates; De Vita, V. T., Hellman, S., Rosenberg, S. A., Eds; J. B. Lippincoft: Philadelphia, pp 1-12 (1989); and A. Monks, et al. J. Natl. Cancer Inst. 83:757 (1991). These lines include leukemia, non-small cell lung, colon, central nervous system (CNS), melanoma, ovarian, renal, prostate, and breast cancers.
(§2) Compounds 29'-51' were submitted to NCI and assayed in the NCI's in vitro disease-oriented antitumor screen, using the techniques described in Example 5. This assay involves determinations of a test agent's effect on growth parameters against a panel of approximately 60 human tumor cell lines, derived largely from solid tumors, including non-small cell lung, colon, central nervous system, renal, ovarian, prostate, and breast cancers, plus a few leukemia cell lines. The cytotoxic effects of each compound are obtained as GI50 or […] values, which represent the molar drug concentrations required to cause half growth inhibition and total growth inhibition, respectively. The results are expressed for each cell line as average log GI50 values in Table 4, as log GI50 values in Table 5, and as log TGI values and average log TGI values in Table 6.

[8] = system: OVCAR-3 ovarian cancer cell line; assay: NCI in vitro screen, ovarian cancer OVCAR-3; assay type: cell-based; details: Homo sapiens, read-out: Cytotoxicity log GI50 (converted)
[9] = system: 786-0 renal cancer cell line; assay: NCI in vitro screen, renal cancer 786-0; assay type: cell-based; details: Homo sapiens, read-out: Cytotoxicity log GI50 (converted)
Source text: as §1, §2

[10] = system: PC-3 prostate cancer cell line; assay: NCI in vitro screen, prostate cancer PC-3; assay type: cell-based; details: Homo sapiens, read-out: Cytotoxicity log GI50 (converted)
Source text: as §1, §2

[11] = system: MDA-MB-435 breast cancer cell line; assay: NCI in vitro screen, breast cancer MDA-MB-435; assay type: cell-based; details: Homo sapiens, read-out: Cytotoxicity log GI50 (converted)
[12] = system: MDA-N breast cancer cell line; assay: NCI in vitro screen, breast cancer MDA-N; assay type: cell-based; details: Homo sapiens, read-out: Cytotoxicity log GI50 (converted)
Source text: as §1, §2

[13] = system: tubulin; assay: Tubulin polymerization assay; assay type: biochemical, bovine
Protocol: Electrophoretically homogeneous bovine brain tubulin was purified as described in E. Hamel, et al. Biochemistry 23:4173 (1984).
The tubulin polymerization assay was performed as described in S. Kuo, et al. J. Med. Chem. 36:1146 (1993); L. Li, et al. J. Med. Chem. 37:1126 (1994); and L. Li J. Med. Chem. 37:3400 (1994). In brief, tubulin at 1.2 mg/ml (12 μM) was preincubated for 15 min at 26° C. in a 0.24-ml volume of 0.8 M monosodium glutamate (pH 6.6 with NaOH in a 2 M stock solution) with varying drug concentrations. The drug stock solutions were in DMSO, and the final solvent concentration was 4 % (v/v). All concentrations are in terms of the final reaction volume (0.25 ml). The reaction mixtures were chilled on ice, and 10 μl of 10 mM GTP was added to each reaction mixture. Samples were transferred to cuvettes held at 0° C. by an electronic temperature controller in Gilford spectrophotometers. Baselines were established at 350 nm, and polymerization initiated by a temperature jump to 26° C. The jump took about 50 sec to complete. After 20 min, turbidity readings were recorded, and the temperature controller was set to 0C. When depolymerization was complete, turbidity readings were again recorded. […] IC50 values were obtained graphically from inhibition of polymerization by different drug concentrations.
Electrophoretically, homogeneous bovine brain tubulin was purified as described in Example 6.
The tubulin polymerization assay was performed as described in Example 6.

[14] = Tables 1 and 4, read-out: ITP HC50 ± SD (Inhibition of Tubulin Polymerization)

| IC50 [13, 14] [µM] | Compound | GI50 [1] [µM] | GI50 [2] [µM] | GI50 [3] [µM] | GI50 [4] [µM] | GI50 [5] [µM] | GI50 [6] [µM] | GI50 [7] [µM] | GI50 [8] [µM] | GI50 [9] [µM] | GI50 [10] [µM] | GI50 [11] [µM] | GI50 [12] [µM] | IC50 ([13]; read-out: IC50, inhibition of tubulin polymerization) [µM] |
| --- | --- | --- | --- | --- | --- | --- | --- | --- | --- | --- | --- | --- | --- | --- |
|  | Cc1ccc2c(n1)N=C(c1cccc3ccccc13)CC2=O [Compound 45, 2-(α-Naphthyl)-7-methyl-1,8-naphthyridin-4-one] | 0.0661 | < 0.01 | 0.0174 | < 0.01 | 0.024 | 0.0155 | 0.0138 | < 0.01 | 6.03 | 0.0302 | < 0.01 | < 0.01 |  |
|  | COc1cccc(-c2cc(=O)c3c(C)ccnc3[nH]2)c1 [Compound 45] | 0.0589 | 0.0129 | 0.0479 | 0.0447 | 0.0288 | 0.0589 | 0.0224 | 0.0257 | 0.0513 | 0.0263 | < 0.01 | < 0.01 |  |
|  | Cc1cc(C)c2c(n1)N=C(c1cccc3ccccc13)CC2=O [Compound 46, 2-(α-Naphthyl)-5,7-dimethyl-1,8-naphthyridin-4-one] | 1.05 | 0.245 | 0.631 | 0.38 | 0.589 | 0.372 | 0.468 | 0.347 | 9.55 | 0.759 | 0.191 | 0.234 |  |
|  | O=C1CC(c2ccc3ccccc3c2)=Nc2ncccc21 [Compound 47, 2-(β-Naphthyl)-1,8-naphthyridin-4-one] | 8.13 | 1.82 | 3.8 | 3.8 | 9.12 | 4.37 | 3.47 | 8.32 | 5.62 | 10.5 | 1.78 | 1.66 |  |
|  | Cc1ccnc2c1C(=O)CC(c1ccc3ccccc3c1)=N2 [Compound 48, 2-(β-Naphthyl)-5-methyl-1,8-naphthyridin-4-one] | 1.2 | 0.204 | 1.12 | 0.427 | 1.48 | 0.646 | 0.437 | 1.29 | 2.4 | 1.38 | 0.204 | 0.204 |  |
|  | COc1cccc(-c2cc(=O)c3c(C)cc(C)nc3[nH]2)c1 [Compound 48] | 0.646 | 0.174 | 0.447 | 0.407 | 0.417 | 0.17 | 0.288 | 0.251 | 0.437 | 0.309 | < 0.01 | < 0.01 |  |
|  | Cc1cnc2c(c1)C(=O)CC(c1ccc3ccccc3c1)=N2 [Compound 49, 2-(β-Naphthyl)-6-methyl-1,8-naphthyridin-4-one] | 0.741 | 0.141 | 0.398 | 0.468 | 0.55 | 0.468 | 0.363 | 0.355 | 0.617 | 0.407 | 0.105 | 0.132 |  |
|  | Cc1ccc2c(n1)N=C(c1ccc3ccccc3c1)CC2=O [Compound 50, 2-(β-Naphthyl)-7-methyl-1,8-naphthyridin-4-one] | 4.57 | 1.78 | 3.8 | 3.98 | 3.8 | 4.57 | 3.31 | 3.63 | 5.37 | 2.63 | 1.58 | 1.95 |  |
|  | Cc1cc(C)c2c(=O)cc(-c3ccc4ccccc4c3)[nH]c2n1 [Compound 51, 2-(β-Naphthyl)-5,7-methyl-1,8-naphthyridin-4-one] | 13.5 | 3.47 | 13.2 | 12.6 | 14.8 | 15.8 | 2.19 | 20 | 51.3 | 5.5 | 2.95 | 3.24 |  |
|  | COc1ccc(-c2cc(=O)c3cccnc3[nH]2)cc1 [Compound 51] | 38 | 12.9 | 26.3 | 17.8 | 64.6 | 53.7 | 34.7 | 30.2 | 56.2 | 31.6 | 20 | 20.9 |  |
|  | COc1ccc(-c2cc(=O)c3c(C)ccnc3[nH]2)cc1 [Compound 52] | 12.9 | 4.37 | 6.17 | 6.46 | 19.5 | 6.31 | 3.89 | 13.8 | 25.1 | 18.2 | 2.4 | 2.09 |  |
| 2.9 ± 0.7 | Cc1ccc(C2=Nc3nccc(C)c3C(=O)C2)cc1 [Compound 67, 2-(4'-Methylphenyl)-5-methyl-1,8-naphthyridin-4-one] |  |  |  |  |  |  |  |  |  |  |  |  |  |
| 2.4 ± 0.8 | Cc1ccc(C2=Nc3ncc(C)cc3C(=O)C2)cc1 [Compound 68, 2-(4'-Methylphenyl)-6-methyl-1,8-naphthyridin-4-one] |  |  |  |  |  |  |  |  |  |  |  |  |  |
| 4.9 ± 0.2 | Cc1ccc(C2=Nc3nc(C)ccc3C(=O)C2)cc1 [Compound 69, 2-(4'-Methylphenyl)-7-methyl-1,8-naphthyridin-4-one] |  |  |  |  |  |  |  |  |  |  |  |  |  |
| 9.8 ± 2 | Cc1ccc(C2=Nc3nc(C)cc(C)c3C(=O)C2)cc1 [Compound 70, 2-(4'-Methylphenyl)-5,7-dimethyl-1,8-naphthyridin-4-one] |  |  |  |  |  |  |  |  |  |  |  |  |  |

| Compound | IC50 [13, 14] [µM] | GI50 [1] [µM] | GI50 [2] [µM] | GI50 [3] [µM] | GI50 [4] [µM] | GI50 [5] [µM] | GI50 [6] [µM] | GI50 [7] [µM] | GI50 [8] [µM] | GI50 [9] [µM] | GI50 [10] [µM] | GI50 [11] [µM] | GI50 [12] [µM] | IC50 ([13]; read-out: IC50, inhibition of tubulin polymerization) [µM] |
| --- | --- | --- | --- | --- | --- | --- | --- | --- | --- | --- | --- | --- | --- | --- |
| COc1ccc(C2=Nc3ncc(C)cc3C(=O)C2)cc1 [Compound 53, 2-(4'-Methoxyphenyl)-6-methyl-1,8-naphthyridin-4-one] | 7.7 ± 0.7 | 6.17 | 2.29 | 4.07 | 4.17 | 5.25 | 4.17 | 3.72 | 2.95 | 5.13 | 5.37 | 1.82 | 1.7 | 1.5 to 9.8 |
| COc1ccc(C2=Nc3nc(C)ccc3C(=O)C2)cc1 [Compound 54, 2-(4'-Methoxyphenyl)-7-methyl-1,8-naphthyridin-4-one] | > 40 | 91.2 | > 100 | > 100 | > 100 | 89.1 | > 100 | 47.9 | > 100 | > 100 | > 100 | 42.7 | 55 |  |
| COc1ccc(C2=Nc3nc(C)cc(C)c3C(=O)C2)cc1 [Compound 55, 2-(4'-Methoxyphenyl)-5,7-dimethyl-1,8-naphthyridin-4-one] | > 40 | 33.1 | 15.8 | 40.7 | 36.3 | 42.7 | 91.2 | 17.8 | 32.4 | 58.9 | 24 | 28.8 | 33.1 |  |
